“And” between values parts separate entries of the source, which are not always exact repeats. Identical values can stand only once. Toxic doses and inconclusive results are not listed.
Test system: P388 leukemia ip, CD2F1 mice, survival T/C
Assay: NCI In Vivo Anticancer Drug Screen. Data for tumor model P388 Leukemia (intraperitoneal) in CD2F1 (CDF1) mice
Settings: endpoint: median survival time, higher = longer survival
How it was run: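 Mice carrying the transplanted tumor received test compound or vehicle. Survival was recorded in each group, and the value is the treated-group measurement divided by that of the vehicle-treated control group.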

[1] = dose: 50.0 mg/kg/injection, schedule: Q01DX005 (ip), vehicle: saline with Tween-80
[2] = dose: 100.0 mg/kg/injection, schedule: Q01DX005 (ip), vehicle: saline with Tween-80
[3] = dose: 200.0 mg/kg/injection, schedule: Q01DX005 (ip), vehicle: saline with Tween-80
[4] = dose: 50.0 mg/kg/injection, schedule: Q01DX009 (ip), vehicle: saline with Tween-80
[5] = dose: 100.0 mg/kg/injection, schedule: Q01DX009 (ip), vehicle: saline with Tween-80
[6] = dose: 50.0 mg/kg/injection, schedule: Q01DX005 (ip), vehicle: Klucel (hydroxypropylcellulose) (HPC)
[7] = dose: 100.0 mg/kg/injection, schedule: Q01DX005 (ip), vehicle: Klucel (hydroxypropylcellulose) (HPC)
[8] = dose: 200.0 mg/kg/injection, schedule: Q01DX005 (ip), vehicle: Klucel (hydroxypropylcellulose) (HPC)
[9] = dose: 50.0 mg/kg/injection, schedule: Q01DX009 (ip), vehicle: saline
[10] = dose: 100.0 mg/kg/injection, schedule: Q01DX009 (ip), vehicle: saline
[11] = dose: 200.0 mg/kg/injection, schedule: Q01DX009 (ip), vehicle: saline
[12] = dose: 200.0 mg/kg/injection, schedule: Q01DX009 (ip), vehicle: saline with Tween-80
[13] = dose: 25.0 mg/kg/injection, schedule: Q01DX009 (ip), vehicle: saline

CC(C)CSc1nc2ccc(N=Cc3ccccc3O)cc2s1
T/C (dose: 50.0 mg/kg/injection, schedule: Q01DX009 (ip), vehicle: Klucel (hydroxypropylcellulose) (HPC)): 94 % of control | T/C (dose: 100.0 mg/kg/injection, schedule: Q01DX009 (ip), vehicle: Klucel (hydroxypropylcellulose) (HPC)): 92 % of control | T/C (dose: 200.0 mg/kg/injection, schedule: Q01DX009 (ip), vehicle: Klucel (hydroxypropylcellulose) (HPC)): 89 % of control

Cc1cnc2cc(Cl)ccc2c1SCC(=O)O
T/C [1]: 104 % of control | T/C [2]: 108 % of control | T/C [3]: 108 % of control

CCCOSSOCCC
T/C (dose: 25.0 mg/kg/injection, schedule: Q01DX009 (ip), vehicle: saline with Tween-80): 103 % of control | T/C [4]: 100 % of control | T/C [5]: 99 % of control

COc1ccc2c(c1)OC(C)(C)C(c1ccccc1)=C2c1ccc(O)cc1
T/C (dose: 15.0 mg/kg/injection, schedule: Q01DX005 (ip), vehicle: saline with Tween-80): 97 % of control | T/C (dose: 30.0 mg/kg/injection, schedule: Q01DX005 (ip), vehicle: saline with Tween-80): 92 % of control | T/C (dose: 60.0 mg/kg/injection, schedule: Q01DX005 (ip), vehicle: saline with Tween-80): 95 % of control

COC(=O)C1CCCN1 (stereo unspecified)
T/C (dose: 60.0 mg/kg/injection, schedule: Q01DX005 (ip), vehicle: saline): 105 % of control | T/C (dose: 120.0 mg/kg/injection, schedule: Q01DX005 (ip), vehicle: saline): 111 % of control | T/C (dose: 240.0 mg/kg/injection, schedule: Q01DX005 (ip), vehicle: saline): 104 % of control

O=C1c2ccccc2C(=O)c2c(NCCNCCNCCO)ccc(NCCNCCNCCO)c21
T/C (dose: 8.0 mg/kg/injection, schedule: Q01DX009 (ip), vehicle: acid diluted with saline): 94 % of control | T/C (dose: 16.0 mg/kg/injection, schedule: Q01DX009 (ip), vehicle: acid diluted with saline): 101 % of control | T/C (dose: 25.0 mg/kg/injection, schedule: Q01DX009 (ip), vehicle: water): 111 % of control and 120 % of control | T/C (dose: 32.0 mg/kg/injection, schedule: Q01DX009 (ip), vehicle: acid diluted with saline): 96 % of control | T/C (dose: 50.0 mg/kg/injection, schedule: Q01DX009 (ip), vehicle: water): 111 % of control | T/C (dose: 64.0 mg/kg/injection, schedule: Q01DX009 (ip), vehicle: acid diluted with saline): 98 % of control

Cc1c(C(=O)O)c(O)cc2c1C(=O)c1c(O)c(C3OC(CO)C(O)C(O)C3O)c(O)c(O)c1C2=O (stereo unspecified)
T/C (dose: 0.12 mg/kg/injection, schedule: Q01DX009 (ip), vehicle: saline): 108 % of control | T/C (dose: 0.25 mg/kg/injection, schedule: Q01DX009 (ip), vehicle: saline): 104 % of control | T/C (dose: 0.5 mg/kg/injection, schedule: Q01DX009 (ip), vehicle: saline): 110 % of control | T/C (dose: 1.0 mg/kg/injection, schedule: Q01DX009 (ip), vehicle: saline): 103 % of control | T/C (dose: 2.0 mg/kg/injection, schedule: Q01DX009 (ip), vehicle: saline): 101 % of control

O=C1C(Cl)=C(NC(=O)C2CCCCC2)C(=O)C(Cl)=C1NC(=O)C1CCCCC1
T/C (dose: 25.0 mg/kg/injection, schedule: Q01DX005 (ip), vehicle: Klucel (hydroxypropylcellulose) (HPC)): 90 % of control | T/C [6]: 90 % of control | T/C [7]: 88 % of control | T/C [8]: 89 % of control

Cc1nn(C(=S)S)c(C)c1N=Nc1ccc(F)cc1
T/C [1]: 103 % of control | T/C [2]: 110 % of control | T/C [3]: 101 % of control

CO/C=C1\CC(=O)N(c2ccccc2)C1=O
T/C (dose: 100.0 mg/kg/injection, schedule: Q04DX003 (ip), vehicle: saline): 106 % of control | T/C (dose: 200.0 mg/kg/injection, schedule: Q04DX003 (ip), vehicle: saline): 100 % of control | T/C (dose: 400.0 mg/kg/injection, schedule: Q04DX003 (ip), vehicle: saline): 97 % of control

c1cc2nc(N3CCNCC3)nc(N3CCOCC3)c2s1
T/C [9]: 94 % of control | T/C [10]: 97 % of control | T/C [11]: 93 % of control

COc1cc2cccc(OC)c(=O)c2c(O)c1OC
T/C [6]: 86 % of control | T/C [1]: 99 % of control | T/C [7]: 88 % of control | T/C [2]: 95 % of control | T/C [8]: 88 % of control | T/C [3]: 91 % of control

Fc1cccc2c(SCCCCCCSc3c4ccccc4nc4c(F)cccc34)c3ccccc3nc12
T/C (dose: 60.0 mg/kg/injection, schedule: Q01DX005 (ip), vehicle: Klucel (hydroxypropylcellulose) (HPC)): 89 % of control | T/C (dose: 120.0 mg/kg/injection, schedule: Q01DX005 (ip), vehicle: Klucel (hydroxypropylcellulose) (HPC)): 89 % of control | T/C (dose: 240.0 mg/kg/injection, schedule: Q01DX005 (ip), vehicle: Klucel (hydroxypropylcellulose) (HPC)): 90 % of control

COc1cc(C(O)C2C(=O)OCC2C2(c3ccc4c(c3)OCO4)SCCCS2)cc(OC)c1OC (stereo unspecified)
T/C [4]: 107 % of control | T/C (dose: 100.0 mg/kg/injection, schedule: Q01DX001 (ip), vehicle: saline with Tween-80): 109 % of control | T/C [5]: 115 % of control | T/C (dose: 200.0 mg/kg/injection, schedule: Q01DX001 (ip), vehicle: saline with Tween-80): 104 % of control | T/C [12]: 108 % of control

CCCCCCCCOP(=O)(CC(CP(=O)(O)OC)P(=O)(O)OC)OCCCCCCCC (stereo unspecified)
T/C [6]: 91 % of control | T/C [7]: 94 % of control | T/C [8]: 93 % of control

CC(C)CC(C)N(C(=S)S)C(C)CC(C)C.[Zn+2] (stereo unspecified)
T/C [1]: 100 % of control | T/C [2]: 104 % of control | T/C [3]: 100 % of control

CCCCCCCCCCCCCCCCNCCCS(=O)(=O)O
T/C (dose: 6.25 mg/kg/injection, schedule: Q01DX009 (ip), vehicle: saline with Tween-80): 96 % of control | T/C (dose: 6.25 mg/kg/injection, schedule: Q01DX009 (ip), vehicle: saline): 103 % of control | T/C (dose: 12.5 mg/kg/injection, schedule: Q01DX009 (ip), vehicle: saline with Tween-80): 107 % of control | T/C (dose: 12.5 mg/kg/injection, schedule: Q01DX009 (ip), vehicle: saline): 100 % of control | T/C [13]: 100 % of control | T/C [4]: 103 % of control | T/C [9]: 103 % of control

COc1ccc2c(c1O)N(C(C)=O)C1C3C(O)OCC=C4CN5CCC21C5CC43 (stereo unspecified)
T/C (dose: 4.5 mg/kg/injection, schedule: Q01DX009 (ip), vehicle: Klucel (hydroxypropylcellulose) (HPC)): 100 % of control | T/C (dose: 5.0 mg/kg/injection, schedule: Q01DX009 (ip), vehicle: saline): 116 % of control | T/C (dose: 9.0 mg/kg/injection, schedule: Q01DX009 (ip), vehicle: Klucel (hydroxypropylcellulose) (HPC)): 103 % of control | T/C (dose: 10.0 mg/kg/injection, schedule: Q01DX009 (ip), vehicle: saline): 111 % of control | T/C (dose: 18.0 mg/kg/injection, schedule: Q01DX009 (ip), vehicle: Klucel (hydroxypropylcellulose) (HPC)): 101 % of control | T/C (dose: 20.0 mg/kg/injection, schedule: Q01DX009 (ip), vehicle: saline): 118 % of control | T/C (dose: 36.0 mg/kg/injection, schedule: Q01DX009 (ip), vehicle: Klucel (hydroxypropylcellulose) (HPC)): 110 % of control | T/C (dose: 72.0 mg/kg/injection, schedule: Q01DX009 (ip), vehicle: Klucel (hydroxypropylcellulose) (HPC)): 104 % of control

CC1=NN(C(=O)c2ccncc2)C(=O)C1N=Nc1ccc([N+](=O)[O-])cc1Cl (stereo unspecified)
T/C [4]: 99 % of control | T/C [5]: 96 % of control | T/C [12]: 104 % of control

CSC1=NN(C(C)=O)C(c2ccncc2)S1 (stereo unspecified)
T/C [6]: 96 % of control | T/C [7]: 97 % of control | T/C [8]: 92 % of control

CC(O)C(N)C(=O)O (stereo unspecified)
T/C (dose: 50.0 mg/kg/injection, schedule: Q01DX005 (ip), vehicle: saline): 104 % of control | T/C [9]: 103 % of control | T/C (dose: 100.0 mg/kg/injection, schedule: Q01DX005 (ip), vehicle: saline): 100 % of control and 108 % of control | T/C [10]: 105 % of control | T/C (dose: 200.0 mg/kg/injection, schedule: Q01DX005 (ip), vehicle: saline): 100 % of control and 103 % of control | T/C [11]: 102 % of control

N#Cc1cc(Br)ccc1N
T/C [9]: 105 % of control | T/C [10]: 107 % of control | T/C [11]: 96 % of control

O=C(O)CC(=O)O.[NH-]CC[NH-].[Pt+2]
T/C (dose: 6.25 mg/kg/injection, schedule: Q04DX002 (ip), vehicle: saline with Tween-80): 111 % of control | T/C [13]: 211 % of control | T/C (dose: 25.0 mg/kg/injection, schedule: Q04DX002 (ip), vehicle: saline with Tween-80): 158 % of control | T/C [9]: 94 % of control

COc1ccccc1N=Nc1c(O)n(-c2ccccc2Cl)c(=S)n(-c2ccccc2OC)c1=O
T/C (dose: 50.0 mg/kg/injection, schedule: Q01DX001 (ip), vehicle: Klucel (hydroxypropylcellulose) (HPC)): 102 % of control | T/C (dose: 100.0 mg/kg/injection, schedule: Q01DX001 (ip), vehicle: Klucel (hydroxypropylcellulose) (HPC)): 102 % of control | T/C (dose: 200.0 mg/kg/injection, schedule: Q01DX001 (ip), vehicle: Klucel (hydroxypropylcellulose) (HPC)): 101 % of control

Reference: PubChem BioAssay AID330 (DTP/NCI, 2004)
